From US20220267380A1, “Glycopeptides Increasing Lipid Synthesis” (TFCHEM, priority 2019, published 2022)

Test system: normal human dermal fibroblasts (NHDF)
Assay: Gene expression in NHDF, full transcriptome analysis with Affymetrix U219 microarray
Format: cell-based
Conditions: NHDF, 7.5 mg/ml, 24 h
Method: In the present study, the transcriptional effects (modulation of gene expression) of compounds 1, 2, 3 and 4 were evaluated on normal human dermal fibroblasts (NHDF) under basal conditions.
More specifically, the comparative analysis of the different transcriptomic profiles was performed using an Affymetrix GeneAtlas platform and the human “full transcriptome” U219 chip, which includes 36,000 transcripts and variants.
Fibroblasts were seeded in 24-well plates and cultured in culture medium for 24 hours. The medium was then replaced by assay medium and cells were incubated for further 24 hours. The medium was replaced by assay medium containing or not (control) the test compounds at different concentrations and the cells were preincubated for 24 hours. All experimental conditions were performed in triplicate. At the end of incubation, the culture supernatants were removed and the cells were washed in a phosphate buffered saline (PBS) solution and immediately frozen at −80° C.
Before RNA extraction, the replicates were pooled. Total RNA was extracted from each sample using TriPure Isolation Reagent® according to the supplier's instructions. The amount and quality of total RNA were evaluated for all samples using capillary electrophoresis (Bioanalyzer 2100, Agilent technologies). From each RNA, a labeled and amplified anti-sens RNA (aRNA) was obtained using GeneChip 3′IVT PLUS Kit (Affymetrix). For each labeled and amplified aRNA sample the profiles were evaluated before and after fragmentation using capillary electrophoresis (Bioanalyzer 2100, Agilent technologies). Hybridization of fragmented aRNA onto Affymetrix® U219 chip (36,000 transcripts and variants) was performed in the GeneAtlas™ fluidics Affymetrix® hybridization station for 20 hours at 45° C. U219 chip was analyzed using the GeneAtlas™ Imaging station (Affymetrix®—resolution 2 μm) to generate fluorescence intensity data.
Expression Console and Quality controls: data were normalized with the Expression Console (Affymetrix®) software using RMA algorithm. Then a quality control of the labeling and the hybridization was performed. Hybridization and labeling steps successfully passed the quality controls for these experiments.
Data reduction, Excel file description: once normalized with Expression Console, data were transferred into a Microsoft Excel® file in order to go further into data reduction.
Calculation and tools were added in order to rank and sort data, and finally to support data interpretation. Detection thresholds in terms of fold change were defined and applied on normalized data.
Results are considered and presented or commented per gene (and not probe). A probe set is a collection of probes designed to interrogate a given sequence of a gene. For data interpretation, the most important relative expression value obtained with one probe is considered to be representative of the corresponding gene. The file contains the following data: • Relative expression (RE) for each sample, • Fold change calculation, • Gene information.

[1] = relative expression adjusted to detection limit (<20)

C[C@H](NC(=O)[C@@H](N)CCCCNCC(F)(F)[C@]1(O)O[C@H](CO)[C@H](O)[C@H](O)[C@H]1O)C(=O)O [Compound 2]
Fold change, APOD (vs control): 0.50
Fold change, DHCR24 (vs control): 2.13
Fold change, HACD1 (vs control): 2.01
Fold change, NEU1 (vs control): 2.18
Fold change, SERINC2 (vs control): 2.09
Fold change, TM7SF2 (vs control): 2.18
Fold change, TXNRD1 (vs control): 2.07
Fold change, SCD (vs control, Affymetrix probe set 11715561_s_at): 2.01
Fold change, SCD (vs control, Affymetrix probe set 11715562_x_at): 2.02
Fold change, SCD (vs control, Affymetrix probe set 11715563_s_at): 2.07
Fold change, FADS1 (vs control, Affymetrix probe set 11752670_a_at): 2.04
Fold change, FADS1 (vs control, Affymetrix probe set 11755251_x_at): 2.19
REadj2, APOD [1]: 174.26
REadj2, DHCR24 [1]: 178.12
REadj2, HACD1 [1]: 516.24
REadj2, NEU1 [1]: 495.48
REadj2, SERINC2 [1]: 245.33
REadj2, TM7SF2 [1]: 88.53
REadj2, TXNRD1 [1]: 1384.05
REadj2, SCD (relative expression adjusted to detection limit (<20), Affymetrix probe set 11715561_s_at): 277.57
REadj2, SCD (relative expression adjusted to detection limit (<20), Affymetrix probe set 11715562_x_at): 302.56
REadj2, SCD (relative expression adjusted to detection limit (<20), Affymetrix probe set 11715563_s_at): 241.64
REadj2, FADS1 (relative expression adjusted to detection limit (<20), Affymetrix probe set 11752670_a_at): 1734.26
REadj2, FADS1 (relative expression adjusted to detection limit (<20), Affymetrix probe set 11755251_x_at): 1114.87
